This passage reports IC50 results from US9604996B2 (Bayer Pharma Aktiengesellschaft, priority 2013, dated 2017).

Structures are written as SMILES.

What is called IC50 is the midpoint of a concentration-inhibition curve.

The target of this test is T1, human adenosine A2b receptor (Homo sapiens, UniProt P29275).
T1 construct: expressed in transfected cells; host or cells: CHO-K1 (Chinese Hamster Ovary) with CRE-luciferase reporter
T1 sequence (P29275 1-332): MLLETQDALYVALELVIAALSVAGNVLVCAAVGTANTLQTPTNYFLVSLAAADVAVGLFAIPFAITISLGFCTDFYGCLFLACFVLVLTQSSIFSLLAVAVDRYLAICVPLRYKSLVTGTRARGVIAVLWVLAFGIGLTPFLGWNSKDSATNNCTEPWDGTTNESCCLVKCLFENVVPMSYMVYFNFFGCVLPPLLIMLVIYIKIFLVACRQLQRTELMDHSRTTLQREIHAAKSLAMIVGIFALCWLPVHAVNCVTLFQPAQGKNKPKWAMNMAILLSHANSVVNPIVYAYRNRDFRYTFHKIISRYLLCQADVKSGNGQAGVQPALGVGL
Description: Cellular reporter gene (CRE-luciferase) A2b receptor antagonist assay in recombinant CHO-K1 cells stimulated with NECA. The class given is cell-based. As to conditions: recombinant CHO-K1 cell line, co-incubation with EC50 concentration of NECA, 3 hours, in some cases means, rounded to two significant digits. Here is the method: B-1. Cellular In Vitro Tests for Determining A2b Receptor Activity and Adenosine Receptor Selectivity
The identification of selective antagonists of the human adenosine A2b receptor and the quantification of the efficacy and selectivity of the compounds according to the invention was carried out with the aid of recombinant cell lines for the human adenosine receptors A1, A2a, A2b and A3. These cell lines were originally derived from an ovarepithelial cell of the hamster (Chinese Hamster Ovary, CHO-K1, American Type Culture Collection, Manassas, Va. 20108, USA). In addition to the respective recombinantly expressed adenosine receptor for testing the efficacy at the A1, A2a and A2b receptors, the cell lines contain a reporter gene construct where expression of the firefly (Photinus pyralis) luciferase is under the control of a promoter which can be activated via intracellular signal cascades by stimulation of the receptors with the (not subtype-selective) adenosine receptor agonist NECA (5′-N-ethylcarboxamidoadenosine) [S. J. Hill, J. G. Baker, S. Rhees, Curr. Opin. Pharmacol. 1, 526-532 (2001)].
In the case of the A2a and A2b cell lines, this is a minimal promoter having a plurality of cAMP-responsive elements (CRE). Stimulation of the Gs coupled A2b or A2a receptors by NECA ultimately leads, via formation of cAMP, to CRE-dependent induction of luciferase expression, which is detected 3 hours after the start of the incubation with NECA using a detection solution in a suitable luminometer. For testing the antagonists, initially, in a pre-experiment, the concentration of NECA which, at the test day in question, results in half-maximum stimulation of luciferase expression (EC50 concentration) is determined By joint incubation of this EC50 concentration of NECA with the substances to be tested, it is possible to determine their antagonistic activity.
`Cc1c(C(=O)N2CCC(O)CC2)sc2c1c(=O)n(CCc1ccccn1)c(=O)n2CCC(F)(F)F` [Example 53, 6-[(4-Hydroxypiperidin-1-yl)carbonyl]-5-methyl-3-[2-(pyridin-2-yl)ethyl]-1-(3,3,3-trifluoropropyl)thieno[2,3-d]pyrimidine-2,4(1H,3H)-dione]: the half-maximal inhibitory concentration (IC50) stood at 170 nM.

As to `CC(C)Cn1c(=O)c2c(C(F)F)c(C(=O)N3CCC(C)(O)CC3)sc2n(CCC(F)(F)F)c1=O` [Example 140, 5-(Difluoromethyl)-6-[(4-hydroxy-4-methylpiperidin-1-yl)carbonyl]-3-isobutyl-1-(3,3,3-trifluoropropyl)thieno[2,3-d]pyrimidine-2,4(1H,3H)-dione], the IC50 came to 39 nM.

In the case of `CC1(O)CCN(C(=O)c2sc3c(c2C(F)F)c(=O)n(CCc2ccccc2)c(=O)n3CCC(F)(F)F)CC1` [Example 85, 5-(Difluoromethyl)-6-[(4-hydroxy-4-methylpiperidin-1-yl)carbonyl]-3-(2-phenylethyl)-1-(3,3,3-trifluoropropyl)thieno[2,3-d]pyrimidine-2,4(1H,3H)-dione], the IC50 was found to be 9.5 nM.

For `CCn1c(=O)c2c(C)c(C(=O)N3CCNC(=O)C3C)sc2n(CCC(F)(F)F)c1=O` (racemic) [Example 39, 3-Ethyl-5-methyl-6-[(2-methyl-3-oxopiperazin-1-yl)carbonyl]-1-(3,3,3-trifluoropropyl)thieno[2,3-d]pyrimidine-2,4(1H,3H)-dione (racemate)], the IC50 was 220 nM.

On to `COCCn1c(=O)n(CCc2ccccc2)c(=O)c2c(C)c(C(=O)N3CCNC(=O)C3)sc21` [Example 28, 1-(2-Methoxyethyl)-5-methyl-6-[(3-oxopiperazin-1-yl)carbonyl]-3-(2-phenylethyl)thieno[2,3-d]pyrimidine-2,4(1H,3H)-dione], for which the IC50 was 150 nM.

Regarding `CCCn1c(=O)c2c(C)c(C(=O)N3CCC(O)CC3)sc2n(CCOC(F)(F)F)c1=O` [Example 60, 6-[(4-Hydroxypiperidin-1-yl)carbonyl]-5-methyl-3-propyl-1-[2-(trifluoromethoxy)ethyl]thieno[2,3-d]pyrimidine-2,4(1H,3H)-dione], the IC50 is 12 nM.

Take `CCn1c(=O)c2c(C)c(C(=O)N3CCC(O)C(C)C3)sc2n(CCC(F)(F)F)c1=O` (stereo not drawn) [Example 73, 3-Ethyl-6-[(4-hydroxy-3-methylpiperidin-1-yl)carbonyl]-5-methyl-1-(3,3,3-trifluoropropyl)thieno [2,3-d]pyrimidine-2,4(1H,3H)-dione (enantiomer pair 1)]: the IC50 was determined as 53 nM.

Regarding `Cc1c(C(=O)N2CCC(O)CC2)sc2c1c(=O)n(CC(C)c1ccccc1)c(=O)n2CCC(F)(F)F` (single isomer, unassigned; enantiomer 1) [Example 44, 6-[(4-Hydroxypiperidin-1-yl)carbonyl]-5-methyl-3-(2-phenylpropyl)-1-(3,3,3-trifluoropropyl)thieno[2,3-d]pyrimidine-2,4(1H,3H)-dione (enantiomer 1)], the half-inhibitory concentration (IC50) worked out at 4.6 nM.

Take `Cc1c(C(=O)N2CCC(O)CC2)sc2c1c(=O)n(CC(C)(O)c1ccccc1)c(=O)n2CCC(F)(F)F` (single isomer, unassigned) [Example 132, 3-(2-Hydroxy-2-phenylpropyl)-6-[(4-hydroxypiperidin-1-yl)carbonyl]-5-methyl-1-(3,3,3-trifluoropropyl)thieno[2,3-d]pyrimidine-2,4(1H,3H)-dione]: the IC50 worked out at 24 nM.

As for `CCn1c(=O)c2c(C)c(C(=O)N3CCC(O)CC3)sc2n(CCCC(F)(F)F)c1=O` [Example 135, 3-Ethyl-6-[(4-hydroxypiperidin-1-yl)carbonyl]-5-methyl-1-(4,4,4-trifluorobutyl)thieno[2,3-d]pyrimidine-2,4(1H,3H)-dione], the IC50 was 94 nM.

Turning to `Cc1c(C(=O)N2CCC(O)CC2)sc2c1c(=O)n(CC(C)C)c(=O)n2CCC(F)(F)F` [Example 64, 6-[(4-Hydroxypiperidin-1-yl)carbonyl]-3-isobutyl-5-methyl-1-(3,3,3-trifluoropropyl)thieno[2,3-d]pyrimidine-2,4(1H,3H)-dione], the IC50 was 45 nM.

As to `COCCn1c(=O)n(CC(F)(F)c2ccccc2)c(=O)c2c(C)c(C(=O)N3CCNC(=O)C3)sc21` [Example 94, 3-(2,2-Difluoro-2-phenylethyl)-1-(2-methoxyethyl)-5-methyl-6-[(3-oxopiperazin-1-yl)carbonyl]thieno[2,3-d]pyrimidine-2,4(1H,3H)-dione], the half-maximal inhibitory concentration (IC50) amounted to 490 nM.

In the case of `CCn1c(=O)c2c(CF)c(C(=O)N3CCC(C)(O)CC3)sc2n(CCC(F)(F)F)c1=O` [Example 144, 3-Ethyl-5-(fluoromethyl)-6-[(4-hydroxy-4-methylpiperidin-1-yl)carbonyl]-1-(3,3,3-trifluoropropyl)thieno[2,3-d]pyrimidine-2,4(1H,3H)-dione], the IC50 was 170 nM.

`CCCn1c(=O)c2c(C)c(C(=O)N3CCC(O)(CO)CC3)sc2n(CCOC(F)(F)F)c1=O` [Example 80, 6-{[4-Hydroxy-4-(hydroxymethyl)piperidin-1-yl]carbonyl}-5-methyl-3-propyl-1-[2-(trifluoromethoxy)ethyl]thieno[2,3-d]pyrimidine-2,4(1H,3H)-dione]: the IC50 worked out at 27 nM.

`CCn1c(=O)c2c(C(F)F)c(C(=O)N3CCC(O)CC3)sc2n(CCC(F)(F)F)c1=O` [Example 122, 5-(Difluoromethyl)-3-ethyl-6-[(4-hydroxypiperidin-1-yl)carbonyl]-1-(3,3,3-trifluoropropyl)thieno[2,3-d]pyrimidine-2,4(1H,3H)-dione]: the half-maximal inhibitory concentration (IC50) turned out to be 32 nM.

For the compound `CCn1c(=O)c2c(C)c(C(=O)N3CCNC(=O)C3)sc2n(CCOC(F)(F)F)c1=O` [Example 130, 3-Ethyl-5-methyl-6-[(3-oxopiperazin-1-yl)carbonyl]-1-[2-(trifluoromethoxy)ethyl]thieno[2,3-d]pyrimidine-2,4(1H,3H)-dione], the 50% inhibitory concentration (IC50) was determined as 9 nM.

Regarding `COCCn1c(=O)n(CC(F)(F)c2ccccc2)c(=O)c2c(C)c(C(=O)N3CCC(O)(CO)CC3)sc21` [Example 71, 3-(2,2-Difluoro-2-phenylethyl)-6-{[4-hydroxy-4-(hydroxymethyl)piperidin-1-yl]carbonyl}-1-(2-methoxyethyl)-5-methylthieno[2,3-d]pyrimidine-2,4(1H,3H)-dione], the IC50 was 420 nM.

Consider `Cc1c(C(=O)N2CCC(O)CC2)sc2c1c(=O)n(CC(C)c1ccccc1)c(=O)n2CCC(F)(F)F` (single isomer, unassigned; enantiomer 2) [Example 45, 6-[(4-Hydroxypiperidin-1-yl)carbonyl]-5-methyl-3-(2-phenylpropyl)-1-(3,3,3-trifluoropropyl)thieno[2,3-d]pyrimidine-2,4(1H,3H)-dione (enantiomer 2)], for which the concentration for half-maximal inhibition (IC50) is 150 nM.

Take `Cc1c(C(=O)N2CCNC(=O)C2)sc2c1c(=O)n(CCc1ccccc1)c(=O)n2CCC=C(F)F` [Example 27, 1-(4,4-Difluorobut-3-en-1-yl)-5-methyl-6-[(3-oxopiperazin-1-yl)carbonyl]-3-(2-phenylethyl)thieno[2,3-d]pyrimidine-2,4(1H,3H)-dione]: the IC50 was 41 nM.

Regarding `CCCn1c(=O)c2c(C)c(C(=O)N3CCNC(=O)C3)sc2n(CCC(F)(F)F)c1=O` [Example 95, 5-Methyl-6-[(3-oxopiperazin-1-yl)carbonyl]-3-propyl-1-(3,3,3-trifluoropropyl)thieno [2,3-d]pyrimidine-2,4(1H,3H)-dione], the concentration for half-maximal inhibition (IC50) turned out to be 140 nM.

As for `Cc1c(C(=O)N2CCC(O)CC2)sc2c1c(=O)n(CCC1CC1)c(=O)n2CCC(F)(F)F` [Example 63, 3-(2-Cyclopropylethyl)-6-[(4-hydroxypiperidin-1-yl)carbonyl]-5-methyl-1-(3,3,3-trifluoropropyl)thieno[2,3-d]pyrimidine-2,4(1H,3H)-dione], the IC50 amounted to 210 nM.

As to `CCn1c(=O)c2c(C)c(C(=O)N3CCC(O)(CC)CC3)sc2n(CCOC(F)(F)F)c1=O` [Example 112, 3-Ethyl-6-[(4-ethyl-4-hydroxypiperidin-1-yl)carbonyl]-5-methyl-1-[2-(trifluoromethoxy)ethyl]thieno[2,3-d]pyrimidine-2,4(1H,3H)-dione], the IC50 is 7.9 nM.

As to `CCn1c(=O)c2c(C(F)F)c(C(=O)N3CCC(C)(O)CC3)sc2n(CCC(F)(F)F)c1=O` [Example 124, 5-(Difluoromethyl)-3-ethyl-6-[(4-hydroxy-4-methylpiperidin-1-yl)carbonyl]-1-(3,3,3-trifluoropropyl)thieno[2,3-d]pyrimidine-2,4(1H,3H)-dione], the IC50 amounted to 37 nM.
